In patent US20060198914A1, “Use of rutin and isoharmnetin for treating depressive states and depression and other emotion disorders” (Bioplanta Arzneimittel GmbH, priority 2003, published 2006):

System: rats
Assay: forced swimming test in rats
Type: in vivo
Method: The antidepressive efficacy was examined by means of the so-called “forced swimming test” in rats. In performing this test rats are brought into an impasse situation (glass cylinder filled with water) over a specified period of 5 minutes. In this test the rats react with a rigor referred to as an immobilization period which is interpreted as a correlative to a depression. If the rats are treated with medicaments having an antidepressive efficacy before carrying out the test, the immobilization period is decreased. Since other psychotropic drugs such as anxiolytics or neuroleptics are not effective in this test, this test system is well suitable for detecting antidepressive effects (Porsolt et al. 1978; Porsolt, 1991). In this test all hitherto known antidepressives have to be administered over a period of several days in order to be effective (similar to the administration to patients). The test animals were treated either with the test substance or for control purposes with the solvent only or with the tricyclic antidepressive imipramine for a comparison of the efficacy.
The following tables exemplarily show the efficacy of rutin, isorhamnetin and plant extracts containing isorhamnetin derivatives or rutin in sufficient amounts. In each table the inhibition of the immobility is expressed in terms of % inhibition against the control group for comparison purposes.

CN(C)CCCN1c2ccccc2CCc2ccccc21 [Imipramine, imipramine, reference compound]
Inhibition of immobility [% of the control] (Table 1, dose 30 mg/kg): 46 % of the control
Inhibition of immobility [% of the control] (Table 2, dose 3 mg/kg): 3 % of the control
Inhibition of immobility [% of the control] (Table 2, dose 10 mg/kg): 24 % of the control
Inhibition [% of the control] (Table 3, dose 20 mg/kg): 43 % of the control
Inhibition [% of the control] (Table 4, dose 20 mg/kg): 43 % of the control
Inhibition [% of the control] (Table 5, dose 30 mg/kg): 64 % of the control

COc1cc(-c2oc3cc(O)cc(O)c3c(=O)c2O)ccc1O [Isorhamnetin, 3,5,7-trihydroxy-2-(4-hydroxy-3-methoxyphenyl)-4H-1-benzopyran-4-one]
Inhibition of immobility [% of the control] (Table 2, dose 3 mg/kg): 17 % of the control
Inhibition of immobility [% of the control] (Table 2, dose 10 mg/kg): 56 % of the control

C[C@@H]1O[C@@H](OC[C@H]2O[C@@H](Oc3c(-c4ccc(O)c(O)c4)oc4cc(O)cc(O)c4c3=O)[C@H](O)[C@@H](O)[C@@H]2O)[C@H](O)[C@H](O)[C@H]1O [Rutin, 3-[[6-O-(6-deoxy-α-L-mannopyranosyl)-β-D-glucopyranosyl]oxy]-2-(3,4-dihydroxyphenyl)-5,7-dihydroxy-4H-1-benzopyran-4-one]
Inhibition of immobility [% of the control] (Table 1, dose 3 mg/kg): 8 % of the control
Inhibition of immobility [% of the control] (Table 1, dose 6 mg/kg): 41 % of the control
Inhibition of immobility [% of the control] (Table 1, dose 12 mg/kg): 42 % of the control
Inhibition of immobility [% of the control] (Table 1, dose 24 mg/kg): 49 % of the control
Inhibition of immobility [% of the control] (Table 1, dose 48 mg/kg): 74 % of the control
